According to PMC10222209 (Pharmaceuticals, 2023):
“Also recorded” adds a separate entry of the source. Where two headings read alike, the source gives them in different places.

How the values were obtained:
22RV1 cells = assay: Antiproliferative assay (resazurin, 72 h) in 22RV1 cells; assay type: cell-based; details: for inhibition at 1 µM / IC50: Homo sapiens; for antiproliferative activity, in words: enzalutamide-resistant cell lines LNCaP95 and 22RV1, SAR statements
Method: (§1) 22Rv1 cells were obtained from ATCC. LNCaP95 cells were provided by Dr. Yan Dong’s laboratory (Tulane University School of Medicine). LNCaP95 cells were maintained in an RPMI1640 medium with charcoal-stripped serum (CSS). 22Rv1 cells were maintained in an RPMI1640 medium with 10% FBS. Cells were seeded in 96-well plates (5 × 10^3 cells/well) containing a 50 μL growth medium for 24 h. After medium removal, a 100 μL fresh medium containing individual compounds at different concentrations was added to each well and incubated at 37 °C for 72 h. Then, 20 μL of resazurin was added for 2 h before recording fluorescence at 560 nm (excitation) and 590 nm (emission) using a Victor microtiter plate fluorometer (Perkin-Elmer, Waltham, MA, USA).

LNCaP95 cells = assay: Antiproliferative assay (resazurin, 72 h) in LNCaP95 cells; assay type: cell-based
Method: as §1

[1] = 22RV1, 1.0 μM, read-out: Inhibitory Rate 22RV1 @1.0 μM
[2] = antiproliferation, 22RV1, 72 h, mean of three independent experiments, read-out: IC50 (μM) 22RV1
[3] = observed, −log IC50, 22RV1 antiproliferation, read-out: Obs pIC50 (converted)
[4] = LNCaP-95, antiproliferation, LNCaP95, 72 h, mean of three independent experiments, read-out: IC50 (μM) LNCaP95

Row | SMILES | IC50 (22RV1 cells; [2]) [µM] | IC50 (22RV1 cells; [3]) [µM] | IC50 (LNCaP95 cells; [4]) [µM] | IC50 (22RV1 cells; 22Rv1, antiproliferation, approximate value, read-out: IC50 in 22RV1 (text)) [µM] | IC50 (LNCaP95 cells; LNCaP-95, antiproliferation, approximate value, read-out: IC50 in LNCaP95 (text)) [µM] | inhibition at 1 µM (22RV1 cells; [1]) [%] | antiproliferative activity, in words (22RV1 cells) | IC50 (22RV1 cells; 22Rv1, 72 h, read-out: IC50 (μM) 22RV1) [µM] | inhibition at 1 µM (22RV1 cells; 22Rv1, read-out: Inhibitory Rate 22RV1 @1.0 μM) [%] | IC50 (22RV1 cells; 22Rv1, read-out: Obs pIC50 (converted)) [µM] | IC50 (LNCaP95 cells; LNCaP-95, 72 h, read-out: IC50 (μM) LNCaP95) [µM]
1 | O=C(Nc1ccc([N+](=O)[O-])c(Cl)c1)c1ccc(Cl)cc1O [A4] | 0.713 ± 0.178 | 0.713 | 3.43 ± 0.49 | – | – | 47.5 | – | – | – | – | –
2 | O=C(Nc1ccc([N+](=O)[O-])c(C(F)(F)F)c1)c1ccc(Cl)cc1O [A6] | 0.424 ± 0.12 | 0.424 | 0.214 ± 0.067 | – | – | 54.4 | equivalent or improved anti-proliferation potency | – | – | – | –
3 | O=C(Nc1ccc([N+](=O)[O-])cc1C(F)(F)F)c1cc(Cl)ccc1O [A11] | – | – | – | – | – | -8.3 | – | – | – | – | –
4 | O=C(Nc1ccc([N+](=O)[O-])c(Cl)c1)c1cc(Cl)ccc1O [A14] | – | – | – | – | – | – | – | 0.386 ± 0.171 | 51.3 | 0.386 | 1.67 ± 0.25
5 | O=C(Nc1ccc([N+](=O)[O-])c(C(F)(F)F)c1)c1cc(Cl)ccc1O [A16] | 0.556 ± 0.112 | 0.556 | 0.693 ± 0.314 | – | – | 47.5 | – | – | – | – | –
6 | O=C(Nc1ccc([N+](=O)[O-])cc1Cl)c1cc(Br)ccc1O [A19] | – | – | – | – | – | 13.4 | dramatic loss of activity | – | – | – | –
7 | Nc1ccc(NC(=O)c2cc(Cl)ccc2O)c(Cl)c1 [B2] | – | – | – | – | – | 19.6 | complete loss of activity | – | – | – | –
8 | O=C(Nc1ccc(C(F)(F)F)c(C(F)(F)F)c1)c1cc(Br)ccc1O [B4] | 0.307 ± 0.059 | 0.307 | 0.213 ± 0.042 | – | – | 53.1 | – | – | – | – | –
9 | O=C(Nc1ccc(C(F)(F)F)cc1Cl)c1cc(F)ccc1O [B5] | 0.375 ± 0.063 | 0.375 | 0.384 ± 0.088 | – | – | 59.2 | – | – | – | – | –
10 | O=C(Nc1ccc(C(F)(F)F)cc1F)c1cc(F)ccc1O [B6] | 0.196 ± 0.032 | 0.196 | 0.185 ± 0.041 | – | – | 62.5 | equivalent or improved anti-proliferation potency | – | – | – | –
11 | N#Cc1cc(C(F)(F)F)ccc1NC(=O)c1cc(F)ccc1O [B7] | 7.92 ± 2.56 | 7.93 | 4.38 ± 1.33 | – | – | 42.3 | – | – | – | – | –
12 | O=C(Nc1ccnc(C(F)(F)F)c1)c1cc(F)ccc1O [B11] | 0.581 ± 0.205 | 0.581 | 0.392 ± 0.136 | – | – | 47.7 | – | – | – | – | –
13 | N#Cc1ccc(NC(=O)c2cc(F)ccc2O)c(F)c1 [B13] | 0.184 ± 0.061 | 0.184 | 0.231 ± 0.072 | – | – | 65.6 | – | – | – | – | –
14 | N#Cc1ccc(O)c(C(=O)Nc2ccc(C(F)(F)F)c(C(F)(F)F)c2)c1 [B15] | 1.04 ± 0.26 | 1.04 | 2.35 ± 0.53 | – | – | 44.8 | – | – | – | – | –
15 | O=C(Nc1ccc(C(F)(F)F)c(C(F)(F)F)c1)c1cc(C(F)(F)F)ccc1O [B16] | 0.111 ± 0.023 | 0.111 | 0.113 ± 0.044 | ~0.1 | ~0.1 | 64.6 | equivalent or improved anti-proliferation potency | – | – | – | –
16 | O=C(Nc1ccc(C(F)(F)F)c(C(F)(F)F)c1)c1cccc(Cl)c1 [C1] | 0.32 ± 0.115 | 0.32 | 0.299 | – | – | 53.1 | retained | – | – | – | –
17 | O=C(Nc1ccc([N+](=O)[O-])cc1Cl)c1cccc(Cl)c1 [C2] | – | – | – | – | – | 19 | significant loss of activity | – | – | – | –
18 | O=C(Nc1ccc([N+](=O)[O-])c(C(F)(F)F)c1)c1cccc(Cl)c1 [C3] | 0.557 ± 0.127 | 0.557 | 0.33 ± 0.081 | – | – | 43.7 | retained | – | – | – | –
19 | O=C(Nc1ccc([N+](=O)[O-])cc1Cl)c1cccc(Br)c1 [C4] | – | – | – | – | – | 31.2 | significant loss of activity | – | – | – | –
20 | O=C(Nc1ccc([N+](=O)[O-])c(C(F)(F)F)c1)c1cccc(Br)c1 [C5] | 0.306 ± 0.058 | 0.306 | 0.536 ± 0.201 | – | – | 58.3 | retained | – | – | – | –
21 | CNC(=O)c1ccc(N2C(=S)N(c3ccc(C#N)c(C(F)(F)F)c3)C(=O)C2(C)C)cc1F [Enzalutamide, reference compound] | – | – | – | – | – | 24.1 | – | – | – | – | –

Now from value to molecule, other results behind:

Row | IC50 (22RV1 cells; [2]) [µM] | IC50 (22RV1 cells; [3]) [µM] | IC50 (LNCaP95 cells; [4]) [µM] | IC50 (22RV1 cells; 22Rv1, antiproliferation, approximate value, read-out: IC50 in 22RV1 (text)) [µM] | IC50 (LNCaP95 cells; LNCaP-95, antiproliferation, approximate value, read-out: IC50 in LNCaP95 (text)) [µM] | SMILES | inhibition at 1 µM (22RV1 cells; [1]) [%] | antiproliferative activity, in words (22RV1 cells) | IC50 (22RV1 cells; 22Rv1, 72 h, read-out: IC50 (μM) 22RV1) [µM] | inhibition at 1 µM (22RV1 cells; 22Rv1, read-out: Inhibitory Rate 22RV1 @1.0 μM) [%] | IC50 (22RV1 cells; 22Rv1, read-out: Obs pIC50 (converted)) [µM] | IC50 (LNCaP95 cells; LNCaP-95, 72 h, read-out: IC50 (μM) LNCaP95) [µM]
22 | 0.467 ± 0.131 | 0.467 | 1.19 ± 0.53 | – | – | O=C(Nc1ccc([N+](=O)[O-])cc1F)c1ccc(Cl)cc1O [A1] | 54.3 | – | – | – | – | –
23 | 0.676 ± 0.245 | 0.676 | 0.62 ± 0.311 | – | – | Cc1cc([N+](=O)[O-])ccc1NC(=O)c1ccc(Cl)cc1O [A2] | 47.1 | – | – | – | – | –
24 | 0.714 ± 0.303 | 0.714 | 2.48 ± 0.702 | – | – | COc1cc([N+](=O)[O-])ccc1NC(=O)c1ccc(Cl)cc1O [A3] | 50 | – | – | – | – | –
25 | 0.924 ± 0.414 | 0.925 | 0.937 ± 0.351 | – | – | O=C(Nc1ccc([N+](=O)[O-])c(F)c1)c1ccc(Cl)cc1O [A5] | 44.2 | – | – | – | – | –
26 | 0.976 ± 0.205 | 0.975 | 0.789 ± 0.436 | – | – | Cc1cc(NC(=O)c2ccc(Cl)cc2O)ccc1[N+](=O)[O-] [A7] | 42.5 | – | – | – | – | –
27 | 2.11 ± 0.52 | 2.11 | 0.615 ± 0.138 | – | – | COc1cc(NC(=O)c2ccc(Cl)cc2O)ccc1[N+](=O)[O-] [A8] | 35.9 | – | – | – | – | –
28 | 0.581 ± 0.289 | 0.581 | 0.812 ± 0.374 | – | – | O=C(Nc1ccc([N+](=O)[O-])cc1)c1cc(Cl)ccc1O [A9] | 44.9 | – | – | – | – | –
29 | 0.271 ± 0.125 | 0.271 | 0.373 ± 0.069 | – | – | O=C(Nc1ccc([N+](=O)[O-])cc1F)c1cc(Cl)ccc1O [A10] | 56 | – | – | – | – | –
30 | 0.248 ± 0.063 | 0.248 | 0.493 ± 0.105 | – | – | Cc1cc([N+](=O)[O-])ccc1NC(=O)c1cc(Cl)ccc1O [A12] | 58 | – | – | – | – | –
31 | 0.158 ± 0.044 | 0.158 | 0.444 ± 0.119 | – | – | COc1cc([N+](=O)[O-])ccc1NC(=O)c1cc(Cl)ccc1O [A13] | 57.3 | – | – | – | – | –
32 | 0.28 ± 0.092 | 0.28 | 0.755 ± 0.221 | – | – | O=C(Nc1ccc([N+](=O)[O-])c(F)c1)c1cc(Cl)ccc1O [A15] | 55.4 | – | – | – | – | –
33 | 0.324 ± 0.058 | 0.324 | 0.867 ± 0.298 | – | – | Cc1cc(NC(=O)c2cc(Cl)ccc2O)ccc1[N+](=O)[O-] [A17] | 50.1 | – | – | – | – | –
34 | 0.483 ± 0.145 | 0.483 | 2.11 ± 0.46 | – | – | COc1cc(NC(=O)c2cc(Cl)ccc2O)ccc1[N+](=O)[O-] [A18] | 55.4 | – | – | – | – | –
35 | 0.242 ± 0.044 | 0.242 | 0.304 ± 0.053 | – | – | COc1cc([N+](=O)[O-])ccc1NC(=O)c1cc(Br)ccc1O [A20] | 60.2 | equivalent or improved anti-proliferation potency | – | – | – | –
36 | 0.24 ± 0.048 | 0.24 | 0.396 ± 0.065 | – | – | N#Cc1cc(NC(=O)c2cc(F)ccc2O)ccc1C(F)(F)F [B8] | 60.4 | – | – | – | – | –
37 | 0.547 ± 0.153 | 0.547 | 0.627 ± 0.225 | – | – | O=C(Nc1ccc(C(F)(F)F)nc1)c1cc(F)ccc1O [B10] | 42.3 | – | – | – | – | –
38 | 3.23 ± 1.84 | 3.23 | > 10 | – | – | N#Cc1ccc(NC(=O)c2cc(F)ccc2O)c(Cl)c1 [B12] | 44.3 | – | – | – | – | –
39 | 0.481 ± 0.113 | 0.481 | 0.386 ± 0.098 | – | – | CC(=O)Oc1ccc(Cl)cc1C(=O)Nc1ccc([N+](=O)[O-])cc1Cl [C7] | 42.9 | comparable activity | – | – | – | –
40 | 0.252 ± 0.092 | 0.252 | 0.196 ± 0.064 | – | – | O=C(Nc1ccc([N+](=O)[O-])cc1Cl)c1cc(Cl)ccc1OS(=O)(=O)C(F)(F)F [C8] | 59.2 | equivalent or improved anti-proliferation potency; also recorded: slightly improved | – | – | – | –
41 | 0.284 ± 0.059 | 0.284 | 0.372 ± 0.074 | – | – | O=C(Nc1ccc([N+](=O)[O-])cc1Cl)c1cc(Cl)ccc1O [Niclosamide, reference compound] | 55.8 | – | – | – | – | –
